Reference: PubChem BioAssay (NCI)
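Here, GI50 denotes the concentration required for 50% inhibition of growth. TGI: total growth inhibition.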

Assays:
Test in all cases: DTP human tumour cell line panel, 384-well format
U251 glioblastoma = system: U251 glioblastoma
786-0 renal = system: 786-0 renal
UACC-62 melanoma = system: UACC-62 melanoma
SF-268 CNS = system: SF-268 CNS
KM12 colon = system: KM12 colon
MALME-3M melanoma = system: MALME-3M melanoma
PC-3 prostate = system: PC-3 prostate
NCI-H226 lung = system: NCI-H226 lung
HCT-116 colon = system: HCT-116 colon
HL-60(TB) leukemia = system: HL-60(TB) leukemia
OVCAR-3 ovarian = system: OVCAR-3 ovarian
HOP-92 NSCLC = system: HOP-92 NSCLC
SK-OV-3 ovarian = system: SK-OV-3 ovarian
HT29 colon = system: HT29 colon
HOP-62 NSCLC = system: HOP-62 NSCLC
SR leukemia = system: SR leukemia
TK-10 renal = system: TK-10 renal
HS 578T breast = system: HS 578T breast
SW-620 colon = system: SW-620 colon
M14 melanoma = system: M14 melanoma
K-562 leukemia = system: K-562 leukemia
ACHN renal = system: ACHN renal
COLO 205 colon = system: COLO 205 colon
SN12C renal = system: SN12C renal
MDA-MB-468 breast = system: MDA-MB-468 breast
MDA-MB-435 melanoma = system: MDA-MB-435 melanoma
HCC-2998 colon = system: HCC-2998 colon
SF-295 CNS = system: SF-295 CNS
HCT-15 colon = system: HCT-15 colon
RPMI-8226 leukemia = system: RPMI-8226 leukemia
A498 renal = system: A498 renal
IGROV1 ovarian = system: IGROV1 ovarian
NCI-H23 lung = system: NCI-H23 lung
OVCAR-4 ovarian = system: OVCAR-4 ovarian
SNB-19 CNS = system: SNB-19 CNS
A549 NSCLC = system: A549 NSCLC
SF-539 CNS = system: SF-539 CNS
NCI-H522 lung = system: NCI-H522 lung
MDA-MB-231 breast = system: MDA-MB-231 breast
CAKI-1 renal = system: CAKI-1 renal
CCRF-CEM leukemia = system: CCRF-CEM leukemia
EKVX NSCLC = system: EKVX NSCLC
UACC-257 melanoma = system: UACC-257 melanoma
MCF7 breast = system: MCF7 breast
OVCAR-8 ovarian = system: OVCAR-8 ovarian
UO-31 renal = system: UO-31 renal
LOX IMVI melanoma = system: LOX IMVI melanoma
SNB-75 CNS = system: SNB-75 CNS
NCI-H322M lung = system: NCI-H322M lung
SK-MEL-28 melanoma = system: SK-MEL-28 melanoma
BT-549 breast = system: BT-549 breast
T-47D breast = system: T-47D breast
NCI/ADR-RES ovarian = system: NCI/ADR-RES ovarian
MOLT-4 leukemia = system: MOLT-4 leukemia
SK-MEL-5 melanoma = system: SK-MEL-5 melanoma
NCI-H460 NSCLC = system: NCI-H460 NSCLC
RXF 393 renal = system: RXF 393 renal
DU-145 prostate = system: DU-145 prostate

CCS(=O)(=O)Nc1ccc(Oc2ccc(F)cc2F)c(-c2cn(C)c(=O)c3[nH]ccc23)c1
GI50 (U251 glioblastoma): 57.1 nM
TGI (U251 glioblastoma): 1800 nM
GI50 ([…]-0 renal): < 10 nM
TGI (786-0 renal): 2120 nM
GI50 (UACC-62 melanoma): < 10 nM
TGI (UACC-62 melanoma): 583 nM
GI50 (SF-268 CNS): 67.4 nM
TGI (SF-268 CNS): 2740 nM
GI50 (KM12 colon): 10 nM
TGI (KM12 colon): 1270 nM
GI50 (MALME-3M melanoma): 11.5 nM
TGI (MALME-3M melanoma): 779 nM
GI50 (PC-3 prostate): 22.3 nM
TGI (PC-3 prostate): 10200 nM
GI50 (NCI-H226 lung): < 10 nM
TGI (NCI-H226 lung): 796 nM
GI50 (HCT-116 colon): 11.2 nM
TGI (HCT-116 colon): 1450 nM
GI50 (HL-60(TB) leukemia): < 10 nM
TGI (HL-60(TB) leukemia): < 10 nM
GI50 (OVCAR-3 ovarian): < 10 nM
TGI (OVCAR-3 ovarian): 156 nM
GI50 (HOP-92 NSCLC): 10.9 nM
TGI (HOP-92 NSCLC): 1520 nM
GI50 (SK-OV-3 ovarian): < 10 nM
TGI (SK-OV-3 ovarian): 504 nM
GI50 (HT29 colon): < 10 nM
TGI (HT29 colon): 11000 nM
GI50 (HOP-62 NSCLC): < 10 nM
TGI (HOP-62 NSCLC): 337 nM
GI50 (SR leukemia): < 10 nM
TGI (SR leukemia): < 10 nM
GI50 (TK-10 renal): < 10 nM
TGI (TK-10 renal): 384 nM
GI50 (HS 578T breast): < 10 nM
TGI (HS 578T breast): 14.5 nM
GI50 (SW-620 colon): 174 nM
TGI (SW-620 colon): 1950 nM
GI50 (M14 melanoma): 12.7 nM
TGI (M14 melanoma): 10200 nM
GI50 (K-562 leukemia): < 10 nM
TGI (K-562 leukemia): 1970 nM
GI50 (ACHN renal): 59.7 nM
TGI (ACHN renal): 10100 nM
GI50 (COLO 205 colon): < 10 nM
TGI (COLO 205 colon): 724 nM
GI50 (SN12C renal): 24.8 nM
TGI (SN12C renal): 3290 nM
GI50 (MDA-MB-468 breast): 10.4 nM
TGI (MDA-MB-468 breast): 429 nM
GI50 (MDA-MB-435 melanoma): 140 nM
TGI (MDA-MB-435 melanoma): 11500 nM
GI50 (HCC-2998 colon): < 10 nM
TGI (HCC-2998 colon): 40.4 nM
GI50 (SF-295 CNS): 120 nM
TGI (SF-295 CNS): 4140 nM
GI50 (HCT-15 colon): < 10 nM
TGI (HCT-15 colon): 1050 nM
GI50 (RPMI-8226 leukemia): < 10 nM
TGI (RPMI-8226 leukemia): < 10 nM
GI50 (A498 renal): 21 nM
TGI (A498 renal): 3250 nM
GI50 (IGROV1 ovarian): < 10 nM
TGI (IGROV1 ovarian): 196 nM
GI50 (NCI-H23 lung): 10.5 nM
TGI (NCI-H23 lung): 237 nM
GI50 (OVCAR-4 ovarian): < 10 nM
TGI (OVCAR-4 ovarian): 79.3 nM
GI50 (SNB-19 CNS): 40.7 nM
TGI (SNB-19 CNS): 12100 nM
GI50 (A549 NSCLC): 34.6 nM
TGI (A549 NSCLC): 10600 nM
GI50 (SF-539 CNS): 27.2 nM
TGI (SF-539 CNS): 3200 nM
GI50 (NCI-H522 lung): < 10 nM
TGI (NCI-H522 lung): 114 nM
GI50 (MDA-MB-231 breast): < 10 nM
TGI (MDA-MB-231 breast): 2850 nM
GI50 (CAKI-1 renal): < 10 nM
TGI (CAKI-1 renal): 475 nM
GI50 (CCRF-CEM leukemia): < 10 nM
TGI (CCRF-CEM leukemia): 353 nM
GI50 (EKVX NSCLC): 397 nM
TGI (EKVX NSCLC): 8660 nM
GI50 (UACC-257 melanoma): 12.8 nM
TGI (UACC-257 melanoma): 1890 nM
GI50 (MCF7 breast): < 10 nM
TGI (MCF7 breast): 1180 nM
GI50 (OVCAR-8 ovarian): < 10 nM
TGI (OVCAR-8 ovarian): 131 nM
GI50 (UO-31 renal): 38.2 nM
TGI (UO-31 renal): 10300 nM
GI50 (LOX IMVI melanoma): < 10 nM
TGI (LOX IMVI melanoma): 14.4 nM
GI50 (SNB-75 CNS): 112 nM
TGI (SNB-75 CNS): 5400 nM
GI50 (NCI-H322M lung): < 10 nM
TGI (NCI-H322M lung): 1610 nM
GI50 (SK-MEL-28 melanoma): 50.2 nM
TGI (SK-MEL-28 melanoma): 2090 nM
GI50 (BT-549 breast): < 10 nM
TGI (BT-549 breast): 172 nM
GI50 (T-47D breast): 24.6 nM
TGI (T-47D breast): 1430 nM
GI50 (NCI/ADR-RES ovarian): 82.6 nM
TGI (NCI/ADR-RES ovarian): 1810 nM
GI50 (MOLT-4 leukemia): < 10 nM
TGI (MOLT-4 leukemia): 124 nM
GI50 (SK-MEL-5 melanoma): < 10 nM
TGI (SK-MEL-5 melanoma): 876 nM
GI50 (NCI-H460 NSCLC): 30.5 nM
TGI (NCI-H460 NSCLC): 2140 nM
GI50 (RXF 393 renal): 308 nM
TGI (RXF 393 renal): 2490 nM
GI50 (DU-145 prostate): 174 nM
TGI (DU-145 prostate): 12500 nM
